Patent publication US8383637B2, “2-amino-quinazoline derivatives useful as inhibitors of β-secretase (BACE)” (Jansssen Pharmaceutica N.V., priority 2004, dated 2013)
Several values for one entry are separate records, joined by “and”; a condition that tells them apart may be missing. Equal entries are not always repeated. Where two headings read alike, the source gives them in different places.

What was measured:
Type in all cases: biochemical
β-secretase(BACE) [1] = molecular target: T1, β-secretase(BACE) (Homo sapiens, UniProt P56817); experiment: BACE Assay-2 (FS1 substrate, IC50 and Ki); details: procedure of Example 159, FS1 substrate
T1 construct: purchased Panvera

β-secretase(BACE) [2] = molecular target: T1, β-secretase(BACE); experiment: BACE FS1% Inhibition Assay; details: FS1 substrate; for inhibition at 0.3 µM / % Inhibition (FS) 0.3 μM: 0.3 μM test compound; for inhibition at 0.3 µM: read-out: % Inhibition (FS) 0.3 μM; for inhibition at 1 µM / % Inhibition (FS) 1 μM: 1 μM test compound; for inhibition at 1 µM: read-out: % Inhibition (FS) 1 μM; for inhibition at 3 µM / % Inhibition (FS) 3 μM: 3 μM test compound; for inhibition at 3 µM: read-out: % Inhibition (FS) 3 μM; for inhibition at 10 µM: read-out: % Inhibition (FS) 10 μM
How it was run: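 Percent inhibition at each tested concentration, referenced to enzyme-free blank and vehicle-only positive control. Reaction: compound and BACE (4 μg/mL working stock) mixed 20 min at room temperature before FS1 substrate (300 μg/mL working stock), then 1 h at room temperature.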

β-secretase(BACE) [3] = molecular target: T1, β-secretase(BACE); experiment: BACE Assay-1 (MCA-substrate, IC50)
How it was run: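 Human BACE (work solution 10 μg/mL) with MCA-peptide substrate (stock 2.0 mg/mL) in 0.05 M citrate buffer, pH 5.0, with PEG8000. Fluorescence read at T0 and T60; compounds tested at multiple concentrations and IC50 calculated from these readings.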

[4] = procedure of Example 158, read-out: IC50 μM (158)

T1 sequence (P56817 46-501): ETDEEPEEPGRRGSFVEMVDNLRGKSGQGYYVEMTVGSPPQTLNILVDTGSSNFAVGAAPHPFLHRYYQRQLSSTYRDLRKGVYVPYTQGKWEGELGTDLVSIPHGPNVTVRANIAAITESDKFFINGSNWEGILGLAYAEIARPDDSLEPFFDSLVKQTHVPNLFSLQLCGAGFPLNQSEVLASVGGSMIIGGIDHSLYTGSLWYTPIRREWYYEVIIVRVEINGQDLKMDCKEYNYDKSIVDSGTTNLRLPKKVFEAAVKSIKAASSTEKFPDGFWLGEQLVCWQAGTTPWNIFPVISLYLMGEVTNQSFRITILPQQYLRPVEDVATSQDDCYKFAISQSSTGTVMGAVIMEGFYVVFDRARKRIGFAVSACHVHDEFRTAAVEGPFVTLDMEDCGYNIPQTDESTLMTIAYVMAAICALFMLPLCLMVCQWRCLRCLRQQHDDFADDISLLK

Structure (SMILES)	Ki (β-secretase(BACE) [1]; read-out: Ki μM (159))	inhibition at 0.3 µM (β-secretase(BACE) [2])	inhibition at 1 µM (β-secretase(BACE) [2])	inhibition at 3 µM (β-secretase(BACE) [2])	IC50 (β-secretase(BACE) [3]; [4])	inhibition at 10 µM (β-secretase(BACE) [2]; 10 μM test compound)	also measured
CCCC(CCC)C(=O)NCC(C1CCCCC1)N1Cc2cc(Oc3ccccc3)ccc2N=C1N (centres unmarked) [Compound 302]	0.14 µM	< 30%	72%	108%	0.05 µM		
CC(C)OC(=O)NCCN1Cc2cc(Oc3ccccc3)ccc2N=C1N [Compound 220, [2-(2-Amino-6-phenoxy-4H-quinazolin-3-yl)-ethyl]-carbamic acid isopropyl ester]	0.2 µM	103%	72%	102%	0.45 µM		
CCCC(CCC(=O)N(CC)C1CCCCC1)N1Cc2cc(Oc3ccccc3)ccc2N=C1N (centres unmarked) [Compound 127]	0.18 µM			79%	0.16 µM	102%	
CN(C(=O)c1cccc(CN2Cc3cc(-c4ccccc4Cl)ccc3N=C2N)c1)C1CCCCC1 [Compound 260]	0.21 µM	53%	86%	112%	0.15 µM		
CCCC(CCC(=O)NC1CCCCC1)N1Cc2cc(Oc3ccccc3)ccc2N=C1N (centres unmarked) [Compound 129]	0.12 µM			113%	0.1 µM	113%	
CC(C)CCC(=O)NC[C@@H](C(C)C)N1Cc2cc(Oc3ccccc3)ccc2N=C1N [Compound 564]	0.011 µM	112%	119%	129%	0.018 µM		
NC1=Nc2ccc(Oc3ccccc3)cc2CN1CCNC(=O)C1CCC1 [Compound 130]	0.21 µM			101%	0.45 µM	123%	
CN(C(=O)CCCCN1Cc2cc(Oc3cccc(NS(=O)(=O)c4ccccc4)c3)ccc2N=C1N)C1CCCCC1 [Compound 114]	0.27 µM			109%	0.079 µM	126%	
CCCC(CCCC(=O)N(C)C1CCCCC1)N1Cc2cc(Oc3ccccc3)ccc2N=C1N (centres unmarked) [Compound 90]	0.22 µM			106%	0.074 µM	124%	
NC1=Nc2ccc(Oc3ccccc3)cc2CN1CCNC(=O)C12CC3CC(CC(C3)C1)C2 [Compound 131]	0.17 µM			115%	0.1 µM	130%	
CN(C(=O)c1cccc(CN2Cc3cc(Sc4ccccc4)ccc3N=C2N)c1)C1CCCCC1 [Compound 476]	0.28 µM	19.9%	66%	102%	0.067 µM		
NC1=Nc2ccc(Oc3ccccc3)cc2CN1CCC(=O)NC1C2CC3CC(C2)CC1C3 (centres unmarked) [Compound 221, N-Adamantan-2-yl-3-(2-amino-6-phenoxy-4H-quinazolin-3-yl) propionamide]		100%	115%	118%	0.011 µM		Ki (β-secretase(BACE) [1]; Ki μM (159)): 0.025 µM and 0.029 µM; % Inhibition (FS) 0.3 μM (β-secretase(BACE) [2]; 0.3 µM): 110%; % Inhibition (FS) 1 μM (β-secretase(BACE) [2]; 1 µM): 119%; % Inhibition (FS) 3 μM (β-secretase(BACE) [2]; 3 µM): 121%; IC50 (β-secretase(BACE) [3]): 0.023 µM
COc1ccccc1-c1ccc2c(c1)CN(Cc1cccc(C(=O)N(C)C3CCCCC3)c1)C(N)=N2 [Compound 167, 3-[2-Amino-6-(2-methoxy-phenyl)-4H-quinazolin-3-ylmethyl]-N-cyclohexyl-N-methyl-benzamide]	0.03 µM and 0.05 µM	100%	112%	113%	0.014 µM		% Inhibition (FS) 0.3 μM (β-secretase(BACE) [2]; 0.3 µM): 91%; % Inhibition (FS) 1 μM (β-secretase(BACE) [2]; 1 µM): 110%; % Inhibition (FS) 3 μM (β-secretase(BACE) [2]; 3 µM): 118%
CCCC(CCC)C(=O)NCCN1Cc2cc(Oc3ccccc3)ccc2N=C1N [Compound 183]	0.19 µM	48%	93%	106%	0.058 µM		
CC(C)C(=O)NCC(C1CCCCC1)N1Cc2cc(Oc3ccccc3)ccc2N=C1N (centres unmarked) [Compound 301]	0.21 µM				0.15 µM		% Inhibition (FS) 0.3 μM (β-secretase(BACE) [2]): <30%; % Inhibition (FS) 1 μM (β-secretase(BACE) [2]): 82%; % Inhibition (FS) 3 μM (β-secretase(BACE) [2]): 106%
COc1ccc(C(CCC(=O)N(C)C2CCCCC2)N2Cc3cc(Oc4ccccc4)ccc3N=C2N)cc1 (centres unmarked) [Compound 298]	0.23 µM	< 30%	75%	110%	0.22 µM		
CCCCS(=O)(=O)NCCN1Cc2cc(Oc3ccccc3)ccc2N=C1N [Compound 135, Butane-1-sulfonic acid [2-(2-amino-6-phenoxy-4H-quinazolin-3-yl)-ethyl]-amide]	0.29 µM			89%	0.89 µM	118%	
CN(C(=O)c1cccc(CN2Cc3cc(-c4c(Cl)cccc4Cl)ccc3N=C2N)c1)C1CCCCC1 [Compound 259]	0.25 µM	< 30%	66%	97%	0.25 µM		
CC(C)C(=O)NCCN1Cc2cc(Oc3ccccc3)ccc2N=C1N [Compound 121]	0.32 µM			103%	0.58 µM	117%	
COc1ccccc1-c1ccc2c(c1)CN(CCNC(=O)C1CCCCC1)C(N)=N2 [Compound 487]	0.26 µM	38%	44%	93%	0.36 µM		% Inhibition (FS) 0.3 μM (β-secretase(BACE) [2]; 0.3 µM): <30%; % Inhibition (FS) 1 μM (β-secretase(BACE) [2]; 1 µM): 32%; % Inhibition (FS) 3 μM (β-secretase(BACE) [2]; 3 µM): 95%
NC1=Nc2ccc(Oc3ccccc3)cc2CN1CCNC(=O)NC1CCCCC1 [Compound 215]	0.4 µM	39%	71%	106%	0.23 µM		
CN(C(=O)CCC(c1ccc(Cl)cc1)N1Cc2cc(Oc3ccccc3)ccc2N=C1N)C1CCCCC1 (centres unmarked) [Compound 297]	0.12 µM	< 30%	76%	109%	0.066 µM		
NC1=Nc2ccc(Oc3ccccc3)cc2CN1[C@@H](CNC(=O)C1CCCCC1)C1CCCCC1 [Compound 485, Cyclohexanecarboxylic acid [2-(2-amino-6-phenoxy-4H-quinazolin-3-yl)-2-(R)-cyclohexyl-ethyl]-amide]	0.017 µM	100%	112%	123%	0.012 µM		
CCCC(CCCC(=O)N(C)C1CCN(C)CC1)N1Cc2cc(Oc3ccccc3)ccc2N=C1N (centres unmarked) [Compound 106]	0.23 µM				0.15 µM		% Inhibition (FS) 3 μM (β-secretase(BACE) [2]): 103%; % Inhibition (FS) 10 μM (β-secretase(BACE) [2]; 10 μM test compound): 114%
NC1=Nc2ccc(Oc3ccccc3)cc2CN1CCNC(=O)C1CC1 [Compound 123]	0.3 µM			71%	1.2 µM	116%	
CCCCC(CC)C(=O)NCCN1Cc2cc(Oc3ccccc3)ccc2N=C1N (centres unmarked) [Compound 122]	0.17 µM			101%	0.19 µM	123%	
CN(C(=O)c1cccc(CN2Cc3cc(-c4ccccc4CO)ccc3N=C2N)c1)C1CCCCC1 [Compound 174]	0.07 µM	85%	106%	111%	0.085 µM		
